Molecular target: T1, SCRM-SPCH heterodimer (Arabidopsis thaliana, UniProt Q700C7)
T1 construct: heterodimerization of SCRM with full-length SPCH, MUTE, or FAMA in the context of the plant cells; combinations of split YFP constructs fused to the full-length stomatal bHLH proteins; nYFP (N terminus of EYFP, 174 amino acids); cYFP (C terminus of EYFP, 64 amino acids); expressed in transfected cells; host or cells: Nicotiana benthamiana leaves (Agrobacterium infiltration)
T1 sequence (Q700C7 1-364): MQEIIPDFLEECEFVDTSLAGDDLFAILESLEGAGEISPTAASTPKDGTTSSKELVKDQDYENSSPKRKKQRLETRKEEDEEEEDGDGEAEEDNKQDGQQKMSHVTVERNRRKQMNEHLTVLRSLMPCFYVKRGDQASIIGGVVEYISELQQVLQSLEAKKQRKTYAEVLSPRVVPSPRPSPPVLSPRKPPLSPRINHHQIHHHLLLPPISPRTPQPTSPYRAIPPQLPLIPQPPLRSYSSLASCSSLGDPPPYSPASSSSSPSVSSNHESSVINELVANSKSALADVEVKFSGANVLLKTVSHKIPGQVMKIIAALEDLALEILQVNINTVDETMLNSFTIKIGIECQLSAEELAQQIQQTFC
Format: cell-based
Details: 100 μM, 1 day
Excerpt: For ratiometric BiFC assays, the cDNAs of SPCH, MUTE, and FAMA were cloned into the 35S CaMV promoter-driven destination vector pSPYNE, which contains the N terminus of the EYFP protein (nYFP-174 amino acids), while the cDNA of SCRM and SCRM2 was inserted into pSPYCE, which contains the C terminus of the EYFP protein (cYFP-64 amino acids) (see Supplementary Table 5 for detailed information of the constructs). The constructs were then transformed into Agrobacterium tumefaciens strain GV3101. The Agrobacterium was resuspended in infiltration buffer (10 mM MgCl2, 10 mM 2-(N-morpholino)ethanesulfonic acid [pH 5.6], and 150 µM acetosyringone). Bacterial culture densities were adjusted to a final optical density (OD600) of 1.0, and the cell suspensions were incubated at room temperature for 4 hours prior to infiltration. Equal volumes of cultures carrying the corresponding complementary pair of BiFC constructs (YFPn and YFPc), along with CaMV35S::Histone H2B-mScarlet-I3 and the silencing suppressor plasmid p19 (a gift from Dr. Sir David Baulcombe) were mixed and then co-infiltrated into 4-week-old N. benthamiana leaves. The infiltrated N. benthamiana leaves were incubated at 25 °C for 2 days. Subsequently, leaf discs were cut out and cultured in mock or in liquid 1/2 MS media in mock (DMSO) or 100 µM Stomidazolone for 1 day. Confocal imaging of N. benthamiana leaves was performed using a Leica SP8 confocal microscope using a 20X objective lens (Leica Microsystems), simultaneously capturing YFP (excitation at 518 nm and emission at 530 nm) and mScarlet-I3 (excitation at 569 nm and emission at 600 nm) differential interference contrast channels.

O=C1C(c2ccccc2)=NC(NS(=O)(=O)c2ccccc2)(c2ccccc2)N1S(=O)(=O)c1ccccc1 (stereo not shown) [Stomidazolone]
effect on heterodimerization, YFP/RFP signal ratio (in words): weakly affecting

— publication PMC11500415, “Chemical inhibition of stomatal differentiation by perturbation of the master-regulatory bHLH heterodimer via an ACT-Like domain” (Nature Communications, 2024)
